Consider seven compounds from patent publication US10440955B2, “Methods comprising a biocidal polyamine” (Curza Global, LLC, priority 2013, dated 2019).

One experiment relates to A. baumannii biofilms. Description: MBEC, MBEC Inoculation Tray (Innovotech), to 10^2 CFU/peg in 24 hours. Format: cell-based, Acinetobacter baumannii. The text has this: To determine the MBEC of each polyamine compound, the MBEC Inoculation Tray by Innovotech, formerly known as the Calgary biofilm device, was used. Within this device, biofilms grow on the surface of polystyrene pegs, 96 of which are attached to a lid. These pegs are inserted into a flat bottom 96-well plate. In this instance, the MBEC of a molecule was defined as the concentration of compound (in μg/mL) required to reduce 10^5 or 10^6 CFU/peg (biofilm levels varied by isolate) to 10^2 CFU/peg in a 24-hour period.
Following the manufacturer's guidelines, biofilms were grown on the surface of each peg by first making a 0.5 McFarland of each isolate. The 0.5 McFarland was diluted 1:100 in CAMHB. Into each well of a flat bottom 96-well plate, 150 μL of broth were pipetted. The plate was shaken at 100 rpm for 24 hours (P. aeruginosa and A. baumannii) or 48 hours (MRSA). The pegs were then placed into a separate flat bottom 96-well plate for 10 seconds with 200 μL of phosphate buffered saline (PBS) in each well to remove nonadherent cells. The lid was then placed into a 96-well plate that contained varying concentrations of antimicrobial with 200 μL per well. The plate was incubated for 24 hours at 37° C. after which time 100 μL of broth were plated on TSA. TSA plates were incubated 24 hours at 37° C. and the number of CFU counted to calculate the CFU/peg. In this instance, the MBEC was defined as the concentration of antimicrobial required to reduce 10^5 or 10^6 CFU/peg to 10^2 CFU/peg in a 24 hour period.
To determine the MBEC, the MBEC Inoculation Tray by Innovotech, formerly known as the Calgary biofilm device, is used. Within this device, biofilms grow on the surface of polystyrene pegs, 96 of which are attached to a lid. These pegs are inserted into a flat bottom 96-well plate. In this instance, the MBEC of a molecule is defined as the concentration of compound required to reduce approximately 10^6 CFU/peg to approximately 10^2 CFU/peg in a 24-hour period.
Following the manufacturer's guidelines, biofilms are grown on the surface of each peg by first making a 0.5 McFarland of A. baumannii. The 0.5 McFarland is diluted 1:100 in CAMHB broth. Into each well of a flat bottom 96-well plate, 150 μL of broth is pipetted. The plate is shaken at 100 rpm for 24 hours. The pegs are placed into a separate flat bottom 96-well plate for 10 seconds with 200 μL of phosphate buffered saline (PBS) in each well to remove nonadherent cells. The lid is placed into a 96-well plate that contains varying concentrations of antimicrobial with 200 μL of broth per well. The plate is incubated for 24 hours at 37° C. after which time 100 μL of broth is plated on TSA. TSA plates is incubated 24 hours at 37° C. and the number of CFU counted to calculate the CFU/peg.
MBEC data were collected using the MBEC Inoculation Tray by Innovotech. The MBEC was defined in these preliminary results as the concentration of antimicrobial required to reduce 10^5 or 10^6 CFU/peg to 10^2 CFU/peg in a 24-hour period.

Another experiment relates to MRSA. Description: MIC, 96-well CAMHB, 10^5 to 10^2 CFU/mL in 24 hours. The experiment is classed as cell-based, Staphylococcus aureus. The following applies: Staphylococcus aureus, MRSA. The essentials:
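Compound exposure was 24 h at 37 °C in CAMHB with an inoculum of ~5×10^5 CFU/mL from a 0.5 McFarland; eight replicates per concentration.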

“And” between values parts separate entries of the source, which are not always exact repeats. Identical values can stand only once. Counter-ions that a name gives are not always drawn. Like-named read-outs stand apart in the source and are kept apart here.

Consider `NCCCNCCCNCc1cc(CNCCCNCCCN)cc(-c2ccccc2)c1` [CZ-58, N^1,N^1′-([1,1′-biphenyl]-3,5-diylbis(methylene))bis(N^3-(3-ammoniopropyl)propane-1,3-diaminium) chloride], for which the “MBEC μg/mL (μM) A. baumannii” value was >50 µg/mL with A. baumannii biofilms (Table 4) and “(>113) μM” in the experiment on A. baumannii biofilms (Table 4, value in parentheses).
As to `NCCCNCCCNCc1ccccc1` [CZ-7, benzylnorspermidine], the “MBEC μg/mL (μM) A. baumannii” value is >500 µg/mL in the experiment with A. baumannii biofilms (Table 4) and “(>2,259) μM” in the experiment on A. baumannii biofilms (Table 4, value in parentheses). The MIC is > 500 µg/mL in the experiment with MRSA (Table 3A c1, read-out: MICs (μg/mL): MRSA (first MRSA column)); > 2260 µM with MRSA (Table 4, value in parentheses, read-out: MIC μg/mL (μM) MRSA); > 500 µg/mL in the experiment on MRSA (Table 4, read-out: MIC μg/mL (μM) MRSA); > 100 µM with MRSA (Table 5, read-out: MIC (MRSA)).
Consider `NCCCNCCCNCc1cccc(CNCCCNCCCN)c1` [CZ-25, N^1,N^1′-(1,3-phenylenebis(methylene))bis(N3-(3-ammoniopropyl)propane-1,3-diaminium) chloride], for which the “MBEC μg/mL (μM) A. baumannii” value with A. baumannii biofilms (Table 4) is 450 µg/mL.
Turning to `CN[C@H](CC(C)C)C(=O)N[C@H]1C(=O)N[C@@H](CC(N)=O)C(=O)N[C@H]2C(=O)N[C@H]3C(=O)N[C@H](C(=O)N[C@H](C(=O)O)c4cc(O)cc(O)c4-c4cc3ccc4O)[C@H](O)c3ccc(c(Cl)c3)Oc3cc2cc(c3O[C@@H]2O[C@H](CO)[C@@H](O)[C@H](O)[C@H]2O[C@H]2C[C@](C)(N)[C@H](O)[C@H](C)O2)Oc2ccc(cc2Cl)[C@H]1O` [vancomycin, reference compound], the MIC in the experiment on MRSA (read-out: MIC μg/mL (μM) MRSA) was 10 µg/mL and 6.9 µM; in the experiment on MRSA (read-out: MICs (μg/mL): MRSA (first MRSA column)), 10 µg/mL.
With `CC(C)CNCCCNCCCNCc1cc(CNCCCNCCCNCC(C)C)cc(-c2ccccc2)c1` [CZ-86, N^1,N^1′-([1,1′-biphenyl]-3,5-diylbis(methylene))bis(N^3-(3-(isobutylamino)propyl)propane-1,3-diamine), hydrochloride salt], the MIC in the experiment on MRSA (read-out: MIC (MRSA)) is < 50 µM.
Regarding “Polymyxin B sulfate [reference compound]”, the “MBEC μg/mL (μM) A. baumannii” value with A. baumannii biofilms (Table 4) was 50 µg/mL; in the experiment on A. baumannii biofilms (Table 4, value in parentheses) it was “(36) μM”.
As for `NCCCNCCCNCc1cc(CNCCCNCCCN)cc(CNCCCNCCCN)c1` [CZ-52, N^1,N^1′,N^1″-(benzene-1,3,5-triyltris(methylene))tris(N^3-(3-aminopropyl)propane-1,3-diamine), hydrochloride salt], the “MBEC μg/mL (μM) A. baumannii” value in the experiment with A. baumannii biofilms (Table 4) was >500 µg/mL.
